Consider 19 compounds from US4940711A, “Antihypertensive N-piperazinylalkanoylanilides” (Recordati, S.A., Chemical and Pharmaceutical Company, priority 1983, dated 1990).

Data set [1] concerns spontaneously hypertensive rats. The experiment in a line: Antihypertensive activity (systolic blood pressure, indirect tail-cuff method) in conscious spontaneously hypertensive rats. It is filed as in vivo. The note with it: Rattus norvegicus, po; os, conscious SHR, 1, 3, 5 and 7 hours after administration; from linear regression of dose-response curve; hydrochloride salt except AC 2, 4 and 9 (free bases); read-out: ED25 (drug dose producing a 25% decrease in systolic blood pressure). On the procedure:
Antihypertensive activity was evaluated in male spontaneously hypertensive rats (SHR, Wister-Kyoto strain, 15-25 weeks old). The determination of blood pressure was performed by the indirect method (M. Gerald et al, Arzneim.-Forsch., 18, 1825, 1968). The animals were prewarmed in a heating chamber at a temperature from 35° to 37° C. for a period of 15 minutes before administering the compounds. The compounds tested by the oral route were dissolved or suspended in a 0.5% methylcellulose solution. Controls were given only the vehicle. Systolic blood pressure and heart rate were measured 1, 3, 5 and 7 hours after drug administration by means of a tail-cuff and the pulse pick-up method using a recorder.
In the Table I, the antihypertensive activity was expressed as ED25, which is the drug dose producing a 25% decrease in systolic blood pressure in conscious spontaneously hypertensive rats. The ED25 was calculated from the linear regression of the dose-response curve.
(§1) ^a all compounds were tested as the hydrochloride salt, except for AC
(§2) 2, 4 and 9 (tested as free bases)

Data set [2] is described as follows: LD50 in the mouse per os (acute toxicity). The note with it: in vivo, po, tested as hydrochloride salt except AC 2, 4 and 9 (free bases). The procedure:
The LD50 of the compounds according to the invention was determined in the mouse per os following the method described by C. S. Weil (Biometrics,8, 249, 1952).
In the following Table I, the numbers under AC (active compound) indicate the compounds described in the corresponding Examples (thus "1" indicates the compound prepared in Example 1).
as §1, §2

Where a name gives a salt, the structure may show the parent alone.

As to `COc1ccccc1N1CCN(CCC(=O)Nc2ccc(S(C)(=O)=O)cc2)CC1` [Example 2, 4-Methylsulphonyl-β-[4-(2-methoxyphenyl)-1-piperazinyl]-propionylanilide], the ED25 in data set [1] came to 7.5 mg/kg. For the same compound, the LD50 in data set [2] was more than 3000 mg/kg.
For `COc1ccccc1N1CCN(CCC(=O)Nc2ccc(S(N)(=O)=O)cc2)CC1` [Example 4, 4-Sulphamoyl-β-[4-(2-methoxyphenyl)-1-piperazinyl]-propionylanilide] the same measures were 8.1 mg/kg and more than 3000 mg/kg.
With `COc1ccccc1N1CCN(CCC(=O)Nc2ccc(C(N)=O)cc2)CC1` [Example 5, 4-Carbamoyl-β-[4-(2-methoxyphenyl)-1-piperazinyl]-propionylanilide], in data set [1], the ED25 came to 54.5 mg/kg. For the same compound, the LD50 in data set [2] was more than 3000 mg/kg.
For `COc1ccccc1N1CCN(CCC(=O)Nc2ccc(C(C)=O)cc2)CC1` [Example 6a, 4-acetyl-β-[4-(2-methoxyphenyl)-1-piperazinyl]-propionylanilide] the same measures were 58.5 mg/kg and 2200 mg/kg.
Regarding `COc1ccccc1N1CCN(CCC(=O)Nc2cccc(C(F)(F)F)c2)CC1` [Example 6b, 3-trifluoromethyl-β-[4-(2-methoxyphenyl)-1-piperazinyl]-propionylanilide hydrochloride], the ED25 in data set [1] was found to be 48.8 mg/kg. In data set [2], the LD50 is 1600 mg/kg.
On the same counts, the results for `COc1ccc(NC(=O)CCN2CCN(c3ccccc3OC)CC2)cc1` [Example 6c, 4-methoxy-β-[4-(2-methoxyphenyl)-1-piperazinyl]-propionylanilide] are 10 mg/kg and more than 3000 mg/kg.
For `COc1cccc(NC(=O)CCN2CCN(c3ccccc3OC)CC2)c1` [Example 6d, 3-methoxy-β-[4-(2-methoxyphenyl)-1-(piperazinyl]-propionylanilide hydrochloride] the same measures were 69 mg/kg and 649 mg/kg.
In the case of `COc1ccccc1N1CCN(CCC(=O)Nc2ccc(C#N)cc2)CC1` [Example 6f, 4-cyano-β-[4-(2-methoxyphenyl)-1-piperazinyl]-propionylanilide], the ED25 in data set [1] was determined as 17.2 mg/kg. Besides, the LD50 in data set [2] came out at 320 mg/kg.
Take `COc1ccccc1N1CCN(CCC(=O)Nc2ccc([N+](=O)[O-])cc2)CC1` [Example 7, 4-Nitro-β-[4-(2-methoxyphenyl)-1-piperazinyl]-propionylanilide]: the ED25 in data set [1] is 50.5 mg/kg. Also, the LD50 in data set [2] was 2100 mg/kg.
For `COc1ccccc1N1CCN(CC(=O)Nc2ccc(N)cc2)CC1` [Example 8a] the same measures were 70.2 mg/kg and 1000 mg/kg.
With `COc1ccccc1N1CCN(CCC(=O)Nc2ccc(C(C)O)cc2)CC1` (stereo not drawn) [Example 9, 4-(1Hydroxyethyl)-β-[4-(2-methoxyphenyl)-1-piperazinyl]-propionylanilide], the ED25 in data set [1] came to 69 mg/kg. Moreover, the 50% lethal dose (LD50) in data set [2] was found to be 537 mg/kg.
Take `COc1ccccc1N1CCN(C(C)CC(=O)Nc2ccc(S(N)(=O)=O)cc2)CC1` (stereo not drawn) [Example 10, 4-Sulphamoyl-β-[4-(2-methoxyphenyl)-1-piperazinyl]-butyrylanilide]: the ED25 in data set [1] was 8.7 mg/kg. Besides, in data set [2], the LD50 is more than 3000 mg/kg.
On the same counts, the results for `COc1ccccc1N1CCN(CCC(=O)Nc2ccc(S(=O)(=O)NC(C)=O)cc2)CC1` [Example 11, 4-Acetylsulphamoyl-β-[4-(2-methoxyphenyl)-1-piperazinyl]-propionylanilide] are 100 mg/kg and more than 3000 mg/kg.
On the same counts, the results for `COc1ccccc1N1CCN(CCC(=O)Nc2ccc(NC(C)=O)cc2)CC1` [Example 12, 4-Acetylamino-β-[4-(2-methoxyphenyl)-1-piperazinyl]-propionylanilide] are 100 mg/kg and more than 3000 mg/kg.
With `COc1ccccc1N1CCN(CCC(=O)Nc2cccc(S(N)(=O)=O)c2)CC1` [Example 13, 3-Sulphamoyl-β-[4-(2-methoxyphenyl)-1-piperazinyl]-propionylanilide hydrate], the ED25 in data set [1] was found to be 100 mg/kg. The LD50 in data set [2] was more than 3000 mg/kg.
Take `COc1ccccc1N1CCN(CCC(=O)Nc2cccc(Cl)c2)CC1` [Example 14, 3-Chloro-β-[4-(2-methoxyphenyl)-1-piperazinyl]-propinylanilide]: the ED25 in data set [1] was found to be 100 mg/kg. Moreover, in data set [2], the LD50 is more than 3000 mg/kg.
With `COc1ccccc1N1CCN(CCC(=O)Nc2ccc3c(c2)OCO3)CC1` [Example 19, 3,4-Methylenedioxy-β-[4-(2-methoxyphenyl)-1-piperazinyl]-propionylanilide], the ED25 in data set [1] amounted to 100 mg/kg. Moreover, the LD50 in data set [2] came to 340 mg/kg.
On to `COc1ccccc1N1CCN(CCC(=O)Nc2cc(OC)c(OC)c(OC)c2)CC1` [Example 20, 3,4,5-Trimethoxy-β-[4-(2-methoxyphenyl)-1-piperazinyl]-propionylanilide hydrochloride], for which the ED25 in data set [1] was 60 mg/kg. Further, the median lethal dose (LD50) in data set [2] was found to be 730 mg/kg.
`COc1ccccc1N1CCN(CCC(=O)Nc2ccc(S(=O)(=O)N(C)C)cc2)CC1` [Example 21, 4-(Dimethylsulphamoyl)-β-[4-(2-methoxyphenyl)-1-piperazinyl]-propionylanilide]: the ED25 in data set [1] turned out to be 60 mg/kg. For the same compound, the LD50 in data set [2] was more than 3000 mg/kg.

One may read the LD50 as the dose expected to kill half of the subjects tested.
